# Patent US6946447B2, “MDM2-specific antisense oligonucleotides” (Hybridon, Inc., priority 1997, dated 2005)
# Where two headings read alike, the source gives them in different places.
# Experiments:
# [1] = tested on: MDM2, p53 and p21 protein levels in LS174T cells; assay: Western blot of MDM2, p53 and p21 in LS174T cells; assay type: cell-based, human; conditions: 400 nM Oligo 24 hr
# Text: Chemicals and Reagents. Cell culture media and phosphate-buffered saline (PBS) were obtained from Sigma Chemical Co. (St. Louis, Mo.). Fetal bovine serum (FBS), antibodies against p53 and p21, Lipofectin, trypsin, penicillin-streptomycin, and trypan blue stain were purchased from GIBCO-BRL (Grand Island, N.Y.). The anti-human-MDM2 monoclonal antibody (Chen L. et al., Proc Natl Acad Sci USA, 95: 195-200, 1998; Chen L. et al., Mol. Med. 5: 21-34, 1999) was kindly provided by J. Chen (Moffitt Cancer Center, Tampa, Fla.). Chemotherapeutic agents adriamycin and 5-fluorouracil (5-FU) were obtained from Sigma. Natural product topoisomerase I inhibitor 10-hydroxycamptothecin (HCPT) was obtained from the Midwest Co. (Beijing, China) with the purity of the drug being greater than 98% (Zhang R. et al., Cancer Chemother Pharm 41: 257-267, 1998). Cell Culture. The tumor cell lines, LS174T and DLD-1 were obtained from the American Type Culture Collection (Rockville, Md.) and cultured according to their instructions. LS 174T cells were cultured in MEM with 0.1 mM nonessential amino acids and Earle's balanced salt solution containing 10% FBS and DLD-1 cells in RPMI 1640 medium containing 10% FBS. All media included 1% penicillin/streptomycin. […] Cells were incubated with Oligos AS or ASM at various concentrations for 72 hr, in the presence of Lipofectin (7 μg/ml). […] Western Blot Analysis. The MDM2, p53 and p21 levels in cultured cells were analyzed by using the methods described previously (earlier (Chen L. et al., Proc Natl Acad Sci USA, 95: 195-200, 1998; Chen L. et al., Mol. Med. 5: 21-34, 1999; Wang H. et al., Int J. Oncol. 15: 653-660, 1999). In brief, cell lysate containing identical amounts of total protein were fractionated by SDS-PAGE and transferred to Bio-Rad Trans-Blot nitrocellulose membranes (Bio-Rad Laboratories, Hercules, Calif., USA). The nitrocellulose membrane was then incubated with blocking buffer (PBS containing 0.1% Tween 20 and 5% non-fat milk) for 1 hr at room temperature and washed with the washing buffer (PBS containing 0. 1% Tween 20) for 5 min twice. The membrane was incubated with primary (anti-MDM2, anti-p53, or anti-p21) antibody overnight at 4° C. or for 1 hr at room temperature with gentle shaking. The membrane was washed with the washing buffer for 15 min and then twice for 5 min, and then incubated with 1:5000 diluted goat anti-mouse IgG-horse radish peroxidase conjugated antibody (Bio-Rad, Hercules, Calif.) for 1 hr at room temperature. After washing as described above the protein of interest was detected by ECL reagents from Amersham (Arlington Height, Ill.). Results. LS174T Model. In vitro inhibition of MDM2 expression by Oligo AS was shown in a sequence-specific, increasing dose-dependent manner (FIG. 19). […] Control oligonucleotide, Oligo ASM had no effect on MDM2, p53 or p21 protein levels at 500 nM, the highest concentration tested in the study.
# Following in vitro combination treatment of Oligos and chemotherapeutic agents HCPT, adriamycin, and 5-FU, the protein levels of MDM2, p53 and p21 were determined in LS174T cells. Cells were incubated with 400 nM Oligo in the presence of Lipofectin for 24 hr, followed by addition of various concentrations of chemotherapeutic agents and incubation for additional 24 hr.
# [2] = mice bearing LS174T xenografts
substance,measurement,setting,value
"Oligo AS: 20-mer mixed-backbone phosphorothioate oligonucleotide with 2′-O-methyl ends, 5′UGACACCTGTTCTCACUCAC-3′; SEQ ID NO:47 (mixed phosphorothioate backbone with 2'-O-methyl ends, pattern not given here)","MDM2, p53 and p21 protein levels, oligo pre-treatment then 5-FU",[1]; then 5-FU 24 hr,"MDM2 expression was inhibited, resulting in significant elevated p53 and p21 levels"
same,"MDM2, p53 and p21 protein levels, oligo pre-treatment then HCPT",[1]; then HCPT 24 hr,"MDM2 expression was inhibited, resulting in significant elevated p53 and p21 levels"
same,"MDM2, p53 and p21 protein levels, oligo pre-treatment then adriamycin",[1]; then adriamycin 24 hr,"MDM2 expression was inhibited, resulting in significant elevated p53 and p21 levels"
same,Survival Rates of Animals,[2]; day 3,100%
same,Survival Rates of Animals,[2]; day 6,100%
same,Survival Rates of Animals,[2]; day 9,100%
same,Survival Rates of Animals,[2]; day 12,100%
same,Survival Rates of Animals,[2]; day 15,100%
same,Survival Rates of Animals,[2]; day 18,100%
